# Source: US20250144127A1, “LONG-CHAIN COMPOUND AND USE THEREOF” (Burgeon Therapeutics Co., Ltd., priority 2021, published 2025)
# Legend:
# [1] = target: T1, Human-derived ACLY protein (Homo sapiens, UniProt P53396); assay: ACLY citrate cleavage enzyme inhibition, ADP-Glo assay; format: biochemical; conditions: 25 nM enzyme, 30 min, 37° C., read-out: IC50 for inhibition of ACLY enzyme activity (mean ± SD)
# T1 construct: purchased Beijing Yiqiao Shenzhou Technology Co., Ltd 11769-H07B
# T1 sequence (P53396 1-1101): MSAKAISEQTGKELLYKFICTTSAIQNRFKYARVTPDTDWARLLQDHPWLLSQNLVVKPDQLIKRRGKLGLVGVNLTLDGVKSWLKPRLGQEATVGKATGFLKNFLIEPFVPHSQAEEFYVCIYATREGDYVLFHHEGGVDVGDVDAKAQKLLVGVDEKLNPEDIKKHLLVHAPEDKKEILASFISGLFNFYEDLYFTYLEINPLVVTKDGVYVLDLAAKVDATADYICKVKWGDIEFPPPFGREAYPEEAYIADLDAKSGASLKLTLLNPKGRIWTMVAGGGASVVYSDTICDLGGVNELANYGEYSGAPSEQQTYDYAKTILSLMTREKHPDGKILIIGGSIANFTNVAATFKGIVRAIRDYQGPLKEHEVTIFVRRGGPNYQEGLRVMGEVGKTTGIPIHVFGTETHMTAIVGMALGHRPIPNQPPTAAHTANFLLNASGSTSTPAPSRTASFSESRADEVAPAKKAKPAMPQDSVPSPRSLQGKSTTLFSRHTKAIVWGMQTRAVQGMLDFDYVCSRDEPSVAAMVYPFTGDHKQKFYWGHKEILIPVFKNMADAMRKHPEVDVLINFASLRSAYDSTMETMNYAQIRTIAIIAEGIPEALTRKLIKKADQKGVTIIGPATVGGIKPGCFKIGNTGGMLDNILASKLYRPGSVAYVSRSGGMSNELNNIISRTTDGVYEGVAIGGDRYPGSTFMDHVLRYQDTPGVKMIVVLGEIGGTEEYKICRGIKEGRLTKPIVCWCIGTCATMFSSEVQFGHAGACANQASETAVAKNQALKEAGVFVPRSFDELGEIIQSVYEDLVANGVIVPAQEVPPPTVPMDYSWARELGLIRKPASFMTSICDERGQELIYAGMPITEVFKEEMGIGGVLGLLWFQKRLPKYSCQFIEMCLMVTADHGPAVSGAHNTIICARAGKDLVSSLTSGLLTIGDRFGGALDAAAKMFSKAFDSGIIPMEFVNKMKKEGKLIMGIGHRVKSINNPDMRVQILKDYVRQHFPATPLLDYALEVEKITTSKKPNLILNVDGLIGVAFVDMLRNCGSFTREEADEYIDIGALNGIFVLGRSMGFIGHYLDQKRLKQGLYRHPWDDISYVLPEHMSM
# From the text: The ACLY-catalyzed citric acid cleavage process requires the consumption of one molecule of ATP to activate citric acid. Based on this reaction principle, the inventors utilized an ADP-Glo assay kit to detect the amount of ATP converted to ADP in response to the catalytic activity of ACLY. After the establishment of the activity measurement system and optimization of the reaction conditions, the inventors evaluated the ACLY inhibitory activity of the obtained novel ACLY small molecule inhibitors.
# Activity test protocol: Human-derived ACLY protein was purchased from Beijing Yiqiao Shenzhou Technology Co., Ltd (Item No. 11769-H07B), and ADP-Glo assay kit was purchased from Promega (Item No. V9102). The total volume of the reaction was 5 μL, which consisted of a mixture of three parts: 1 μL of 2% DMSO, 2 μL of the substrate mixture, and 2 μL of the enzyme (final concentration of 25 nM). Then 1 μL of different concentrations of compounds were added for incubation. Reaction conditions: 30 min, 37° C. Then 2.5 μL of ADP Reagent from ADP-Glo Kit was used, mixed well and reacted for 2 h. 5 μL of ADP Detection was added, centrifuged and mixed well. Then the full wavelength value was read from Envision multifunctional plate reader.
# Results: Firstly, the cumulative amount of fluorescence intensity of the enzyme in 30 min reaction time (RFU/min) was calculated to represent the initial velocity of the enzyme, and then the ratio of the enzyme's velocity with the addition of compounds (vsample) to the enzyme's velocity without the addition of compounds (vDMSO) was calculated to be the percentage of activity for each concentration group of the samples (Activity rate %), with the formula: % Activity=(V(sample)/(v(DMSO))×100%. The logarithmic value of the concentration was plotted against the activity percentage, and then a non-linear regression was used to calculate the fitted curve. The software GraphPad Prism 8.0 (formula log (inhibitor) vs. response—Variable slope) was used to fit the curve and calculate the IC50 value, and the results are shown in the table below.
# [2] = system: primary mouse hepatocytes; assay: Inhibition of de novo lipid synthesis in primary hepatocytes, [1,2-14C]-sodium acetate tracer; format: cell-based; conditions: Hepatocyte, compound 12.5 μM, 4 h, [1,2-14C]-acetate, read-out: Lipid synthesis inhibition (%) (mean ± SD)
# Description: Primary hepatic cell isolation and walling: the mouse liver was lavaged by calcium-free perfusate, then digested using collagenase and mouse primary hepatocytes were obtained by density gradient centrifugation, and were inoculated in 6-well plates at a density of 3×10^5/ml (0.2% gelatin was coated before inoculating). After inoculating, the cells were cultured and adhered for 6 h. The medium was changed to serum-free LG-DMEM (containing 2× double antibody) and starved the cells overnight.
# Isotope tracing: the next day, the medium was switched to serum-free LG-DMEM containing 10 nM insulin and the corresponding concentration of compounds (1950 μL, 4 replicate wells per group); 0.1 μCi of [1,2-^14C]-acetate serum-free medium was added to each well, and the plates were then incubated for 4 h in the incubator.
# Lipid saponification: Add 1.6 mL of ice PBS to each well for washing 3 times, shake the plate to dry and add 600 μL of 0.5 M KOH to each well to lysis for 1 h. Pipette 480 μL into a glass test tube with 400 μL of 20% KOH (methanol was used as solvent), shake and mix well, and then place it in a water bath at 95° C. to saponify for 3 h. The remaining lysate was used for the determination of the concentration of proteins. Add 400 μL of petroleum ether to each tube, pipette 5-6 times and centrifuge at 2500 rpm for 5 min, take 350 μL of the upper layer of the clear solution to the EP tube, and then add 400 μL of petroleum ether to repeat the extraction for 2 times (a total of 3 times). After complete transfer of the supernatant, 200 μL of water and 400 μL of 5N sulfuric acid were added to each tube for acidification, and the mixture was shaken and mixed. Add 400 μL of petroleum ether to each tube, pipette 5-6 times and centrifuge at 2500 rpm for 5 min, take 350 μL of the upper layer of the clear solution to the EP tube, then add 400 μL of petroleum ether and repeat the extraction for 2 times (a total of 3 times). Place in a fume hood and evaporate the petroleum ether overnight.
# Isotope participation quantification: 1700 μL of scintillation solution was added to each tube and read.
# Data processing and analysis: Firstly, the isotopic reference (R control, unit: CCPM/mg protein) of free fatty acids and cholesterol was calculated for the Control group of untreated mouse primary hepatocytes within 4 hours, which represented the basal synthesis. The percent inhibition of lipid synthesis was then calculated for each concentration group of the sample.
# golden hamster = assay: High-fat and high-cholesterol diet-induced hyperlipidemia model of golden hamster; format: in vivo; conditions: for serum LDL cholesterol / serum total cholesterol: 1 time/day, 7 days, vs control group
# From the text: Dosing regimen: The hyperlipidemia model of golden hamster is recognized as one of the ideal animal models for studying hyperlipidemia drug therapy (pharmacodynamic evaluation). In order to preliminarily investigate the existence of potential regulatory effects of the candidate compounds on hepatic lipid metabolism homeostasis, the high-fat and high-cholesterol diet-induced hyperlipidemia model of golden hamster was utilized for preliminary pharmacodynamic evaluation. The specific protocol was as follows. 56 golden hamsters, males, were modeled on high-fat and high-cholesterol diet (Research diet, item number C11953) for two weeks, and 8 golden hamsters were reserved as blank control group. Subsequently, group administration (7 groups, n=8) was performed, i.e., model control group, positive control ETC-1002 30 mg/kg group, compound A3 10 mg/kg and 30 mg/kg group, compound A4 10 mg/kg and 30 mg/kg group, and blank control group. The compounds in each group were configured with saline (0.9% NaCl) and administered at a frequency of 1 time/day for a 7-day dosing cycle.
# Indicator test: The body weight and food intake of golden hamsters were closely monitored during the administration period. After 7 days of administration, blood was collected from the orbital region of each group (starved overnight for about 16 hours), centrifuged to obtain serum, and stored in cryopreservation, and then total cholesterol and LDL cholesterol were detected in the serum. The relative amount of the relevant indexes was calculated as follows: Relative amount (100%)=the amount in the administered group/the amount in the model control group*100%.
# [3] = Oral pharmacokinetics in ICR mice; format: in vivo, mouse; conditions: male, mouse, ICR mice, oral, 30 mg/kg, plasma
# Description: Dosing regimen: 6 normal ICR mice, male, were divided into 2 groups (n=3), one group was orally given the positive control ETC-1002, and one group was orally given the tested compound A3, both administered at a dose of 30 mg/kg; blood was taken from the eye orbits at different time points before and after the administration of the drug, and the plasma drug concentration was detected.
# [4] = system: primary hepatocytes from WT mice; assay: De novo lipid synthesis in WT primary hepatocytes, [14C]-citric acid tracer; format: cell-based; conditions: WT mouse hepatocytes, [14C]-citric acid substrate
# [5] = system: ACLY knockdown primary hepatocytes; assay: De novo lipid synthesis in ACLY knockdown primary hepatocytes, [14C]-citric acid tracer; format: cell-based, mouse; conditions: [14C]-citric acid substrate
# From the text: Test protocol: In order to further investigate the dependence of the inhibitory effect of the series of compounds on de novo lipid synthesis on ACLY, the inventors chose ACLY knockdown primary hepatocytes for further evaluation of de novo lipid synthesis, while compound ETC-1002 was used as a positive control. Specifically, the experimental protocol was as above, and 0.1 μCi/well [^14C]-citric acid was used for tracing.
# [6] = golden hamster, during administration
IC50 [1] [µM],SMILES,inhibition at 12.5 µM [2] [%],other results
105 ± 7.1,CC(C)(CCCC/C=C\CCCCC(C)(C)C(=O)O)C(=O)O [Compound A2],80.9 ± 5.9,
25.5 ± 6.8,CC(C)(CCCCC/C=C\CCCCCC(C)(C)C(=O)O)C(=O)O [Compound A6],68.7 ± 20.9,
21.3 ± 9.7,CC(C)(CCCCC/C=C\CCCCCCC(C)(C)C(=O)O)C(=O)O [Compound A8],21.6 ± 1.3,
25.8 ± 9.2,CC(C)(CCCCCC/C=C/CCCCCCC(C)(C)C(=O)O)C(=O)O [Compound A9],30.9 ± 4.2,
40.2 ± 2.9,C/C(CCCCCC(C)(C)C(=O)O)=C(\C)CCCCC(C)(C)C(=O)O [Compound A11],,
56.9 ± 4.7,CC(C)(CCCCCC1CC1CCCCC(C)(C)C(=O)O)C(=O)O (stereo not shown) [Compound A12],38.7 ± 11.4,

# The remaining lines, values behind:
SMILES,IC50 [1] [µM],inhibition at 12.5 µM [2] [%],other results
CC(C)(CCCC/C=C/CCCCC(C)(C)C(=O)O)C(=O)O [Compound A1],42.3 ± 6.5,,
CC(C)(CCCC/C=C\CCCCCC(C)(C)C(=O)O)C(=O)O [Compound A4],53.9 ± 13.8,78.2 ± 4.3,serum LDL cholesterol (golden hamster; 10 mg/kg): did not change significantly; serum total cholesterol (golden hamster; 10 mg/kg): did not change significantly; serum LDL cholesterol (golden hamster; 30 mg/kg): significantly reduce; serum total cholesterol (golden hamster; 30 mg/kg): significantly reduce; body weight (golden hamster; [6]): significant decrease; food intake (golden hamster; [6]): significant decrease; tolerance observation (golden hamster; [6]): intolerance phenomena such as slowed activity
CC(C)(CCCCC/C=C/CCCCCC(C)(C)C(=O)O)C(=O)O [Compound A5],16.7 ± 1.8,56.6 ± 7.6,
CC(C)(CCCCC/C=C/CCCCCCC(C)(C)C(=O)O)C(=O)O [Compound A7],12 ± 2.2,,
CC(C)(CCCCCC/C=C\CCCCCCC(C)(C)C(=O)O)C(=O)O [Compound A10],9.6 ± 5.1,21.1 ± 11.7,
"CC(C)(CCCCCC(O)CCCCCC(C)(C)C(=O)O)C(=O)O [ETC-1002, Bempedoic acid, reference compound]",,46.3 ± 15.3,AUC(0-inf) [3]: 15600 ng·h/mL; AUC(0-t) [3]: 14400 ng·h/mL; Cmax [3]: 3810 ng/mL; Tmax [3]: 0.25 h; half-life [3]: 4.45 h; MRT inf ([3]; read-out: MRT0-∞): 6.81 h; de novo synthesis of triglycerides ([4]; FIG. 1 A): significantly inhibited; de novo synthesis of cholesterol ([4]; FIG. 1 B): significantly inhibited; inhibitory effect on de novo synthesis of cholesterol [5]: significantly attenuated or even the inhibitory effect was not manifested; inhibitory effect on de novo synthesis of triglycerides [5]: significantly attenuated or even the inhibitory effect was not manifested
